Laboratory results reported in patent US11185078B2 (priority 2016, dated 2021).
Where a SMILES comes first, the peptide text is derived from it. Bridges are numbered along the chain shown (N, C = ends). The star is where a group is joined. ξ: configuration not given here. Pentadecanoyl(3ξ-OH,15-Gua) = N=C(N)NCCCCCCCCCCCCC(O)CC(=O)*

Tests used:
Format in all cases: in vivo
[1] = system: Phytophthora infestans (PHYTIN); conditions: for % efficacy (% fungal attack) PHYTIN: 360 ppm, in planta
[2] = system: Fusarium graminearum (GIBBZE); conditions: 360 ppm
[3] = system: Septoria tritici (SEPTTR); conditions: 360 ppm, protective application

Row | SMILES | % efficacy (% fungal attack) PHYTIN [1] | % efficacy (% fungal attack) GIBBZE ([2]; in planta) | % efficacy (% fungal attack), head blight on wheat caused by Fusarium graminearum ([2]; protective application) | % efficacy (% fungal attack), late blight on tomato caused by Phytophthora infestans ([1]; 7.2 ppm, protective application) | % efficacy (% fungal attack), head blight on wheat caused by Septoria tritici [3]
1 | CCC(C)C1NC(=O)C(NC(=O)CC(O)CCCCCCCCCCCCNC(=N)N)C(C)OC(=O)C(C)NC(=O)C(CC(N)=O)NC(=O)C(C(C)O)NC(=O)C(Cc2ccc(O)cc2)NC1=O (stereo not drawn) [Compound 1A, fusaricidin 1A] ({Pentadecanoyl(3ξ-OH,15-Gua)}-TIYTNA; ester 1-C; configuration not given here) | 100% | 49% | 49% |  | 
2 | CCC(C)C1NC(=O)C(NC(=O)CC(O)CCCCCCCCCCCCNC(=N)N)C(C)OC(=O)C(C)NC(=O)C(CCC(N)=O)NC(=O)C(C(C)O)NC(=O)C(Cc2ccc(O)cc2)NC1=O (stereo not drawn) [Compound 1B, fusaricidin 1B] ({Pentadecanoyl(3ξ-OH,15-Gua)}-TIYTQA; ester 1-C; configuration not given here) | 100% |  |  | 44% | 80%
